Experiment in all cases: NCI anticancer screen, dose series, 48 h
Assay [1] concerns HOP-92 NSCLC.
Assay [2] deals with OVCAR-8 ovarian.
In assay [3] the test system is SN12C renal.
Assay [4] relates to TK-10 renal.
Assay [5] relates to NCI-H460 lung.
The test system of assay [6] is IGROV1 ovarian.
Assay [7] concerns CAKI-1 renal.
Assay [8] concerns MALME-3M melanoma.
The test system of assay [9] is COLO 205 colon.
Assay [10] has as its system SK-MEL-2 melanoma.

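Values below derive from 48-hour exposures of cells grown in 96-well plates, with endpoints linearly interpolated between the two concentrations bracketing the appropriate inhibition level. The concentration for 50% growth inhibition is given as GI50. TGI is the concentration that stops growth completely.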 Bounds are passed on as bounds.

Take `C=C1C(=O)O[C@H]2[C@H]1CC/C(COC(=O)C(=O)c1cn(C)c3ccc(OC)cc13)=C\CC[C@@]1(C)O[C@@H]21`: the GI50 was 1.27 µM in [1]; 6.76 µM in assay [2]; 6.1 µM in [3]; 4.79 µM in assay [4]; 7.2 µM in assay [5]; 2.27 µM in [6]. Further, the GI50 in assay [7] is 7.25 µM; in assay [8] it was 5.62 µM. Further, the TGI was determined as 3.17 µM in assay [1]; 20.4 µM in assay [2]; 12.8 µM in [3]; 13.2 µM in [4]; 14.4 µM in assay [5]; 6.01 µM in assay [6]. In addition, the TGI in assay [7] came to 21.8 µM; in assay [8], 9.91 µM.
As to `COc1ccc(-c2[nH]ncc2-c2cc(OC)c(OC)c(OC)c2)cc1`, the GI50 in assay [1] is below 0.01 µM; in [9], below 0.01 µM; in [2] it was below 0.0124 µM; in assay [5], below 0.01 µM; in assay [6] it was below 0.01 µM; in assay [7], below 0.01 µM. Besides, the GI50 in assay [10] is below 0.01 µM. Moreover, the TGI is 0.901 µM in assay [1]; below 0.01 µM in assay [9]; above 33.2 µM in [2]; above 81.8 µM in assay [3]; 1.3 µM in assay [5]; 7.73 µM in [6]. In addition, the TGI in assay [7] is 25 µM; in assay [10] it was 0.517 µM.
In the case of `C=C(C(=O)OC)[C@@H]1C[C@@H](O)[C@]2(C)CC/C=C(\C)CCC[C@H](C)[C@H](O)C1O2`, the GI50 in assay [1] was 3.71 µM; in assay [9], 36.1 µM; in [2], above 100 µM; in [3], 77.9 µM; in assay [4], 19.6 µM; in assay [5] it was 75.5 µM. The GI50 in assay [6] is 22.7 µM; in assay [7], 45.5 µM; in [10], 48.5 µM. Besides, the TGI in assay [1] is 45.4 µM; in assay [9] it was above 100 µM; in assay [2] it was above 100 µM; in assay [3], above 100 µM; in assay [4], 48.8 µM; in assay [5] it was above 100 µM. The TGI in assay [6] was 73.5 µM; in assay [7], above 100 µM; in assay [10], above 100 µM.
For `C=CCC(C)(C(=O)NCCC)C(=O)c1ccccc1O` (stereo not given), the TGI in [9], in assay [2], in [3], in assay [4], in [5] and in assay [6] was above 100 µM throughout. The TGI in assay [7], in assay [8] and in assay [10] was above 100 µM throughout.
Turning to `CCCCCCCCCC(=O)N[C@H]1CCc2cc(OC)c(OC)c(OC)c2-c2ccc(SC)c(=O)cc21`, the TGI in [1] was 0.0788 µM; in [9] it was 0.0123 µM; in assay [3] it was 19.6 µM; in assay [4], 25.5 µM; in [5], 0.306 µM; in [7], above 100 µM. For the same molecule, the GI50 in [7] was 5.27 µM.
`Cc1cccc(N2C(=O)C(=O)C(c3nc4ccccc4s3)C(=O)C2=O)c1C`: the TGI in assay [1], in [9], in assay [2], in assay [3], in assay [4] and in [6] was above 100 µM each time. For the same molecule, the TGI in [7], in assay [8] and in [10] was above 100 µM each time.
Regarding `C=CCNC(=S)OCCCCCCCCCC`, the TGI in assay [2] was 31.2 µM; in assay [3], 31.7 µM; in assay [4], 24.1 µM; in [5], 33 µM; in [6] it was 35.7 µM; in assay [7], 34 µM. In addition, the TGI in [8] is 33.8 µM; in [10] it was 24.8 µM.
`COc1cccc(C2C(C#N)=C(N)Oc3cc(OC)ccc32)c1` (stereo not given): the GI50 in [1] is 0.0822 µM; in assay [9], 0.0464 µM; in assay [2], 0.048 µM; in assay [3], 0.0773 µM; in [4], 11.8 µM; in assay [5] it was 0.0353 µM. Moreover, the values for the GI50 in [6] and in [7] were 0.0622 µM and 0.0493 µM, respectively. Besides, the TGI in assay [1] is 25.2 µM; in assay [9] it was 0.529 µM; in assay [2], above 100 µM; in assay [3], above 41.8 µM; in assay [4] it was 74.1 µM; in assay [5], 3.64 µM. Further, the TGI in [6] is above 50.9 µM; in assay [7], above 100 µM.
Take `O=C1CCC(=O)C12CCc1cccc(O)c12`: the TGI in assay [1], in [9], in assay [2], in assay [3], in assay [4] and in assay [5] was above 100 µM in each case. The TGI in assay [6], in assay [7] and in assay [8] was above 100 µM in each case.
As to `CCc1nc(N)nc(N)c1-c1ccc(Cl)c(N=NN(C)C)c1`, the TGI is above 100 µM in [1]; 50.7 µM in assay [9]; above 100 µM in assay [2]; above 100 µM in assay [3]; above 100 µM in assay [4]; 40.5 µM in [5]. In addition, the TGI in [6] is above 95.5 µM; in [7], above 96.9 µM; in assay [10], 62.1 µM.
For `COc1ccc(Nc2c[nH]c(=O)[nH]c2=O)cc1`, the TGI in assay [1], in assay [9], in assay [2], in [3], in assay [4] and in assay [6] was above 100 µM in each case. Moreover, the TGI in [7], in assay [8] and in assay [10] was above 100 µM throughout.
On to `NC(=S)N/N=C(\C(=O)Nc1ccc(Cl)c(Cl)c1)C1=NN(c2ccccc2)C(c2cccc([N+](=O)[O-])c2)CC1=O` (stereo not given), for which the TGI in [9] is 36.3 µM; in [2], above 100 µM; in [3], 38.5 µM; in [4], above 100 µM; in [5], above 100 µM; in [6] it was 72.6 µM. Moreover, the TGI in assay [7], in assay [8] and in [10] was above 100 µM each time.
For the molecule `O=C(Nc1ccccc1F)c1ccc(NC2=C(Cl)C(=O)N(Cc3ccccc3)C2=O)cc1`, the GI50 in assay [1] is 1.91 µM; in assay [9], 9.03 µM; in assay [2], 2.84 µM; in assay [3], 1.98 µM; in [5] it was 6.6 µM; in assay [6], 1.16 µM. Moreover, the GI50 was 1.7 µM in assay [7] and 6.84 µM in assay [10]. In addition, the TGI in assay [1] stood at 5.03 µM; in [9], 21 µM; in assay [2], 7.86 µM; in assay [3], 7.93 µM; in [5] it was 19.3 µM; in assay [6] it was 2.94 µM. Further, the values for the TGI in [7] and in assay [10] were 3.25 µM and 18.4 µM, respectively.
With `COc1cccc2c(Nc3ccc(C(=O)NCCN(C)C)cc3)cc(-c3ccccc3)nc12`, the GI50 in [1] is 0.832 µM; in assay [9], 11.2 µM; in [2], 17.3 µM; in assay [3], 16.1 µM; in assay [4], 23.8 µM; in assay [6], 10.8 µM. The GI50 in assay [7] was 27.8 µM; in assay [8] it was 20 µM; in [10] it was 17.9 µM. Besides, the TGI in [1] amounted to 8.86 µM; in [9], 26.5 µM; in assay [2], 42.7 µM; in assay [3], 36.4 µM; in assay [4], 57.2 µM; in assay [6], 25.6 µM. In addition, the TGI was determined as 55.3 µM in [7], 40.2 µM in assay [8] and 36.8 µM in assay [10].
As to `C=CCNc1cccc2c1C(=O)c1ccccc1C2(O)CC=C` (stereo not given), the GI50 was 27.4 µM in [1]; 16.2 µM in assay [9]; 19.5 µM in assay [2]; 20.2 µM in assay [3]; 25.2 µM in [4]; 56 µM in assay [5]. In addition, the GI50 is 33.3 µM in [6] and 20.7 µM in assay [10]. Also, the TGI was 55.4 µM in assay [1]; 36.1 µM in assay [9]; 47.1 µM in [2]; 43 µM in assay [3]; 57.8 µM in [4]; above 100 µM in assay [5]. Besides, the TGI in assay [6] was above 100 µM; in assay [10] it was 47.6 µM.
In the case of `CS(=O)(=O)CS(=O)CS(=O)CS(=O)CC(NC(=O)CCC(N)C(=O)O)C(=O)O` (stereo not given), the TGI in [1], in assay [9], in [2], in [3], in assay [4] and in [5] was above 100 µM each time. Further, the TGI in [6], in assay [7] and in assay [10] was above 100 µM each time.
Consider `CC(C)(C)C(=O)OCC(COC(=O)C(C)(C)C)[N+](=O)[O-]`, for which the TGI in assay [9], in assay [2], in [3], in assay [4], in assay [5] and in [6] was above 100 µM each time. In addition, the TGI in assay [7], in [8] and in assay [10] was above 100 µM each time.
Turning to `CC(=O)OC1=C2C(CC3C4CC=C5CC(OC(C)=O)CCC5(C)C4CCC23C)C2C(=O)N(Cc3ccccc3)C(=O)C2C1` (stereo not given), the GI50 is 8.12 µM in assay [9]; 6.9 µM in assay [2]; 10.9 µM in assay [3]; 47.4 µM in assay [4]; 3.73 µM in assay [5]; 6.85 µM in assay [6]. For the same molecule, the GI50 in assay [7] was 4.65 µM; in assay [8] it was 10.5 µM. Further, the TGI is 25 µM in assay [9]; above 100 µM in [2]; above 100 µM in [3]; above 100 µM in assay [4]; 31.1 µM in [5]; above 100 µM in [6]. The TGI in assay [7] and in assay [8] was above 100 µM in each case.
As for `CN(C)CCNC(=O)c1cccc2c1nc(-c1ccccn1)c1ccccc12`, the TGI was 39.7 µM in assay [1]; 24.8 µM in [9]; 34.5 µM in [2]; above 100 µM in assay [3]; 23.2 µM in assay [5]; 66.6 µM in assay [6]. For the same molecule, the TGI in assay [7] is 61.9 µM; in assay [10], 34 µM.
Take `CC(C)CC(=O)CC(O)C(Cl)(Cl)Cl` (stereo not given): the TGI in assay [9], in assay [2], in [3], in assay [4], in assay [6] and in assay [7] was above 100 µM in each case. Further, the TGI in assay [8] and in [10] was above 100 µM each time.
Turning to `C=C1C(=O)O[C@H]2[C@H]1CC(=O)/C(C)=C\CC[C@@]1(C)O[C@@H]21`, the GI50 in assay [1] was 1.94 µg/mL; in assay [9], 0.755 µg/mL; in assay [2], 3.98 µg/mL; in assay [3] it was 4.17 µg/mL; in assay [4] it was 1.93 µg/mL; in assay [5] it was 3.83 µg/mL. Also, the GI50 is 2.17 µg/mL in assay [6], 1.19 µg/mL in assay [7] and 3.99 µg/mL in assay [10]. Besides, the TGI in assay [1] was found to be 4.32 µg/mL; in assay [9], 3.54 µg/mL; in assay [2] it was 7.81 µg/mL; in assay [3] it was 8.4 µg/mL; in assay [4], 5.38 µg/mL; in assay [5], 8.08 µg/mL. Moreover, the TGI is 5.8 µg/mL in [6], 3.45 µg/mL in [7] and 8.47 µg/mL in [10].
In the case of `Cc1nn(C)c(=O)c2nn(-c3ccccc3)c(C)c12`, the TGI in [9], in assay [2], in [3], in [4], in assay [5] and in [6] was above 100 µM throughout. Also, the TGI in assay [7], in assay [8] and in assay [10] was above 100 µM in each case.
Turning to `COc1ccc(S(=O)(=O)N/N=C(\C)CN2C(=O)c3ccccc3C2=O)cc1`, the TGI in assay [9], in assay [2], in assay [3], in assay [4], in assay [5] and in assay [6] was above 100 µM in each case. The TGI in [7], in assay [8] and in [10] was above 100 µM throughout.

(Values after PubChem BioAssay (NCI).)
